Patent publication US7998965B2, “Glutamate aggrecanase inhibitors” (Wyeth LLC, priority 2005, dated 2011)

Experiments:
recombinant human MMP-2 = biological target: T1, recombinant human MMP-2 (Homo sapiens, UniProt P08253); assay: In vitro fluorescence assay of MMP-2 activity
T1 sequence (P08253 110-660): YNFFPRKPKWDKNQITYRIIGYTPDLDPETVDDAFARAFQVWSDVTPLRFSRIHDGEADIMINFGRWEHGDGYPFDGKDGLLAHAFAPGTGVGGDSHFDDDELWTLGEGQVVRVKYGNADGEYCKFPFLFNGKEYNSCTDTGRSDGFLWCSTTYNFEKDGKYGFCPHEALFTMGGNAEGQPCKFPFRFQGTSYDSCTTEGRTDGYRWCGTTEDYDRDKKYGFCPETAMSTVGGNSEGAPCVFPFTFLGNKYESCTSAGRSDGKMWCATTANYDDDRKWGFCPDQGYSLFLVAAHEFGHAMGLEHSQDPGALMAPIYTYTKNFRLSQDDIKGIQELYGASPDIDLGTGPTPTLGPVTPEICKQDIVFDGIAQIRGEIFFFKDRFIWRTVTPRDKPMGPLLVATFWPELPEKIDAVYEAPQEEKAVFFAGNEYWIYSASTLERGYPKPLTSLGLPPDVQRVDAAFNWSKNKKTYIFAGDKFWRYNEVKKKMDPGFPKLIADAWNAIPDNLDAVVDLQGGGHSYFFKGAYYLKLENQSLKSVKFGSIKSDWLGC

MMP-8 = MMP-8 (Homo sapiens, UniProt P22894); assay: MMP-8 of Table 3; format: biochemical; conditions: unit inferred
[1] = biological target: T2, purified recombinant human Aggrecanase-2 (Ag2t-Phe628-Strep) (Homo sapiens, UniProt Q9UNA0); assay: In vitro fluorescence screen for Aggrecanase-2 inhibitors; format: biochemical; conditions: Table 3; for IC50: read-out: Agg 2 IC50; for Ki: read-out: Ki Agg2
T2 construct: the form used is denoted as Ag2t-Phe628-Strep (MW=41,737)
T2 sequence (Q9UNA0 262-628): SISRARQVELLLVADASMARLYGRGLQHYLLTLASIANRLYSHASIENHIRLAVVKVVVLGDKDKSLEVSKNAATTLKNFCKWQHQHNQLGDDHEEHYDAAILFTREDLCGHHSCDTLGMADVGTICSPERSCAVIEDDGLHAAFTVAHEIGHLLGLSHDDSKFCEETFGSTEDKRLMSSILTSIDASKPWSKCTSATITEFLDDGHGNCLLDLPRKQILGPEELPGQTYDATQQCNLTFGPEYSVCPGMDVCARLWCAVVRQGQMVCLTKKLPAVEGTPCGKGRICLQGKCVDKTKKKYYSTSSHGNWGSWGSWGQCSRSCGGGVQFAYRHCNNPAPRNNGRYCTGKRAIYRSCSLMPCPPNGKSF

MMP-12 = MMP-12 (Homo sapiens, UniProt P39900); assay: MMP-12 of Table 3; format: biochemical; conditions: unit inferred
[2] = biological target: T3, purified recombinant human Aggrecanase-1 (rAgg1) (Homo sapiens, UniProt O75173); assay: In vitro fluorescence screen for Aggrecanase-1 inhibitors; format: biochemical; conditions: Table 3; for IC50: read-out: Agg1 IC50; for Ki: read-out: Ki Agg1
T3 sequence (O75173 213-837): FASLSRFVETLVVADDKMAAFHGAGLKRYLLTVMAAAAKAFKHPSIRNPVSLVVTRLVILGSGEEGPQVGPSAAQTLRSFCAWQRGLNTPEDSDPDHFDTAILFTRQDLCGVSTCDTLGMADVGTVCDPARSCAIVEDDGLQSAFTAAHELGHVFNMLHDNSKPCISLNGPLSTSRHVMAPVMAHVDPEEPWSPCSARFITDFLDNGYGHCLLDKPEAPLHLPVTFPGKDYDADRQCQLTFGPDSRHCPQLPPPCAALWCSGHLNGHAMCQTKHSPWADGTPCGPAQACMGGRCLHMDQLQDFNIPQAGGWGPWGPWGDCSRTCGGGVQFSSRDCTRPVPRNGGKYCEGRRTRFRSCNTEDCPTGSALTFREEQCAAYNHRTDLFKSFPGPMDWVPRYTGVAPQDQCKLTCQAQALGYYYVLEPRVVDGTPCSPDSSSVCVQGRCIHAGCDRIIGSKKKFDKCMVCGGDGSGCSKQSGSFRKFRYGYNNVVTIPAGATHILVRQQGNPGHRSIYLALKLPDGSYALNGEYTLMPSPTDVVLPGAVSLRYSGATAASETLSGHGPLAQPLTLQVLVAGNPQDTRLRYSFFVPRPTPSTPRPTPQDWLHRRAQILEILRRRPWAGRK

Sequence of MMP-8 (P22894 101-467, species assumed): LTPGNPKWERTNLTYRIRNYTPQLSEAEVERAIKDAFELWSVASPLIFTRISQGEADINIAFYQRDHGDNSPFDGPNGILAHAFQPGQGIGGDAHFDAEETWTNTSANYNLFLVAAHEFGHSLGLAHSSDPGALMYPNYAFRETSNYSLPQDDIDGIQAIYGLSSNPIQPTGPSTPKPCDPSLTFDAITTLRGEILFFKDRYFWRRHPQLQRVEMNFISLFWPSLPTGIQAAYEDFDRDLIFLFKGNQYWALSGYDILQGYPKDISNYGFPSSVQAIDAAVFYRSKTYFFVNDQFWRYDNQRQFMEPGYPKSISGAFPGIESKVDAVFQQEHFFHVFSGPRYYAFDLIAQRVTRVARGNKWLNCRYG
Sequence of MMP-12 (P39900 106-470): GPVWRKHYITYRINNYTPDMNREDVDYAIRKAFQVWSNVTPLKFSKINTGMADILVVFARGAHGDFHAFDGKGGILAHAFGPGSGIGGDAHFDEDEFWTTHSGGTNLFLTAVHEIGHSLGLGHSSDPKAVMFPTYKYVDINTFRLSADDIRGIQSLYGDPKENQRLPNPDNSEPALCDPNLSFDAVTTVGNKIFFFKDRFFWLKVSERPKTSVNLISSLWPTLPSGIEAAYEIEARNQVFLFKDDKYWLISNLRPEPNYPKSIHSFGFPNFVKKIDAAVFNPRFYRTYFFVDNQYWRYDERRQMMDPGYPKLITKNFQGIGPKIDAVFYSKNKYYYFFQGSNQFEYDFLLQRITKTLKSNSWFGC

| SMILES | IC50 (recombinant human MMP-2) [nM] | IC50 (MMP-8) [nM] | IC50 [1] [nM] | Ki [1] [nM] | IC50 (MMP-12) [nM] | IC50 [2] [nM] | Ki [2] [nM] | inhibition at 0.14 µM ([1]; at 140 (nM), read-out: Agg 2 % at concentration) [%] |
| --- | --- | --- | --- | --- | --- | --- | --- | --- |
| CC(C)(Cc1ccc(F)cc1)NC(=O)[C@H](CCC(=O)O)NC(=O)c1ccc(-c2ccsc2)cc1 [Example 8UUUUUUU, N-[2-(4-fluorophenyl)-1,1-dimethylethyl]-N^2-[4-(3-thienyl)benzoyl]-L-α-glutamine] | 5180 | 2030 | 60 | 60 | 410 | < 30 | < 3 |  |
| Cc1ccc(-c2ccc(C(=O)N[C@@H](CCC(=O)O)C(=O)NC(C)(C)Cc3ccc(F)cc3)cc2)s1 [Example 8VVVVVVV, N-[2-(4-fluorophenyl)-1,1-dimethylethyl]-N^2-[4-(5-methyl-2-thienyl)benzoyl]-L-α-glutamine] | 570 | 410 |  | 305 | 770 | < 30 | 7 | 51 |
| CC(C)(Cc1ccc(F)cc1)NC(=O)[C@H](CCC(=O)O)NC(=O)c1ccc(-c2ccc(Br)s2)cc1 [Example 8WWWWWW, N^2-[4-(5-bromo-2-thienyl)benzoyl]-N-[2-(4-fluorophenyl)-1,1-dimethylethyl]-L-α-glutamine] | 2600 | 1000 | 50 | 72 | 5800 | < 3 | 7.1 |  |
| CC(C)(Cc1ccc(F)cc1)NC(=O)[C@H](CCC(=O)O)NC(=O)c1ccc(-c2ccc(F)c(F)c2)cc1 [Example 8YYYYYY, N^2-[(3′,4′-difluorobiphenyl-4-yl)carbonyl]-N-[2-(4-fluorophenyl)-1,1-dimethylethyl]-L-α-glutamine] | 4700 | 737 | 30 | 160 | 365 | < 30 | 13.5 |  |
| CC(C)(Cc1ccccc1)NC(=O)[C@H](CCC(=O)O)NC(=O)c1ccc(-c2ccc(F)cc2)cc1 [N-(1,1-dimethyl-2-phenylethyl)-N^2-[(4′-fluorobiphenyl-4-yl)carbonyl]-L-α-glutamine] | 4000 | 763 | 90 | 218 | 628 | < 30 | 27.2 |  |
| CC(C)(Cc1ccc(Cl)cc1)NC(=O)[C@H](CCC(=O)O)NC(=O)c1ccc(-c2cccc(Cl)c2)cc1 [N^2-[(3′-chlorobiphenyl-4-yl)carbonyl]-N-[2-(4-chlorophenyl)-1,1-dimethylethyl]-L-α-glutamine] | 25500 | 13200 | 250 | 349 | 3710 | < 30 | 39.6 |  |
| CC(C)(Cc1ccc(F)cc1)NC(=O)[C@H](CCC(=O)O)NC(=O)c1ccc(-c2ccc(Cl)s2)nc1 [N^2-{[6-(5-chloro-2-thienyl)pyridin-3-yl]carbonyl}-N-[2-(4-fluorophenyl)-1,1-dimethylethyl]-L-α-glutamine] | 1300 | > 5000 | > 300 | 723 | > 10000 | < 30 | 42 |  |

Further compounds by falling IC50 (recombinant human MMP-2), results first:

| IC50 (recombinant human MMP-2) [nM] | IC50 (MMP-8) [nM] | IC50 [1] [nM] | Ki [1] [nM] | IC50 (MMP-12) [nM] | IC50 [2] [nM] | Ki [2] [nM] | inhibition at 0.14 µM ([1]; at 140 (nM), read-out: Agg 2 % at concentration) [%] | SMILES |
| --- | --- | --- | --- | --- | --- | --- | --- | --- |
| 8280 | 2440 | 30 to 90 | 123 | 2860 | < 30 | 4.7 |  | CC(C)(Cc1ccc(F)cc1)NC(=O)[C@H](CCC(=O)O)NC(=O)c1ccc(-c2ccc(F)cc2)s1 [Example 8ZZZZZZZZZ, N-[2-(4-fluorophenyl)-1,1-dimethylethyl]-N^2-{[5-(4-fluorophenyl)-2-thienyl]carbonyl}-L-α-glutamine] |
| 8000 | 3400 | > 100 | 405 | > 10000 | < 30 | 11.7 |  | CC(C)(Cc1ccc(F)cc1)NC(=O)[C@H](CCC(=O)O)NC(=O)c1ccc(-c2ccc(Cl)cc2)s1 [N^2-{[5-(4-chlorophenyl)-2-thienyl]carbonyl}-N-[2-(4-fluorophenyl)-1,1-dimethylethyl]-L-α-glutamine] |
| 7500 | 4100 | 20 | 60 | 1600 | < 30 | < 3 |  | CC(C)(Cc1ccc(Cl)s1)NC(=O)[C@H](CCC(=O)O)NC(=O)c1ccc(-c2cccc(F)c2)cc1 [Example 8XXXXXX, N-[2-(5-chloro-2-thienyl)-1,1-dimethylethyl]-N^2-[(3′-fluorobiphenyl-4-yl)carbonyl]-L-α-glutamine] |
| 7240 | 2550 | 30 to 300 | 126 | 2890 | < 30 | 11.5 |  | CC(C)(Cc1ccccc1)NC(=O)[C@H](CCC(=O)O)NC(=O)c1ccc(-c2ccc(F)cc2)s1 [N-(1,1-dimethyl-2-phenylethyl)-N^2-{[5-(4-fluorophenyl)-2-thienyl]carbonyl}-L-α-glutamine] |
| 6970 | 2230 | 100 to 300 | 204 | 2240 | < 30 | 28.9 |  | CC(C)(Cc1ccccc1)NC(=O)[C@H](CCC(=O)O)NC(=O)c1ccc(-c2ccc(Cl)cc2)s1 [N^2-{[5-(4-chlorophenyl)-2-thienyl]carbonyl}-N-(1,1-dimethyl-2-phenylethyl)-L-α-glutamine] |
| 6400 | 2500 | 80 | 180 | 1070 | < 30 | 23.2 |  | CC(C)(Cc1ccccc1)NC(=O)[C@H](CCC(=O)O)NC(=O)c1ccc(-c2cccc(F)c2)cc1 [N-(1,1-dimethyl-2-phenylethyl)-N^2-[(3′-fluorobiphenyl-4-yl)carbonyl]-L-α-glutamine] |
| 2610 | 1790 | 25 | 71.6 | 597 | < 30 | 18.2 |  | CC(C)(Cc1ccc(Cl)cc1)NC(=O)[C@H](CCC(=O)O)NC(=O)c1ccc(-c2ccc(Cl)cc2)cc1 [Example 8XXXXXXXXX, N^2-[(4′-chlorobiphenyl-4-yl)carbonyl]-N-[2-(4-chlorophenyl)-1,1-dimethylethyl]-L-α-glutamine] |
